From patent publication US20180170941A1 (priority 2016, published 2018)

Tests used:
MAM-treated rats = conditions: cited from earlier work
GABAA α5 receptor = target: T1, GABAA α5 receptor (Rattus norvegicus, UniProt P18508+P19969); assay: GABAA α5 receptor occupancy with Ro 15-4513 tracer, hippocampus vs cerebellum; type: in vivo, Long Evans rats; conditions: for Ro 15-4513 binding in hippocampus / cerebellum levels (binding) of Ro 15-4513: 0.01-10 mg/kg
T1 construct: from tissue
Description: Food and water were available ad libitum.
The (100 μl) supernatant solution was diluted by […] of sterile water (pH 6.5).

aged-impaired (AI) rats = assay: Radial Arm Maze (RAM) behavioral task, spatial memory retention; type: in vivo, rat; conditions: 3 mg/kg ip, two-hour delay, t(7)=4.233, p=0.004
Description: The effects of methyl 3,5-diphenylpyridazine-4-carboxylate on the in vivo spatial memory retention of aged-impaired (AI) rats were assessed in a Radial Arm Maze (RAM) behavioral task using vehicle control and four different dosage levels of methyl 3,5-diphenylpyridazine-4-carboxylate (0.1 mg/kg, 0.3 mg/kg, 1 mg/kg and 3 mg/kg, ip). RAM behavioral tasks were performed on eight AI rats. All five treatment conditions (vehicle and four dosage levels) were tested on all eight rats.
The RAM apparatus used consisted of eight equidistantly-spaced arms. An elevated maze arm (7 cm width×75 cm length) projected from each facet of an octagonal center platform (30 cm diameter, 51.5 cm height). Clear side walls on the arms were 10 cm high and were angled at 65° to form a trough. A food well (4 cm diameter, 2 cm deep) was located at the distal end of each arm. Froot Loops™ (Kellogg Company) were used as rewards. Blocks constructed of Plexiglas™ (30 cm height×12 cm width) could be positioned to prevent entry to any arm. Numerous extra maze cues surrounding the apparatus were also provided.
The AI rats were initially subjected to a pre-training test (Chappell et al. Neuropharmacology 37: 481-487, 1998). […]

[1] = i.v., listed as Methyl 3,5-diphenylpyridazine-4-carboxylate

T1 sequence (P19969 32-464 limits assumed): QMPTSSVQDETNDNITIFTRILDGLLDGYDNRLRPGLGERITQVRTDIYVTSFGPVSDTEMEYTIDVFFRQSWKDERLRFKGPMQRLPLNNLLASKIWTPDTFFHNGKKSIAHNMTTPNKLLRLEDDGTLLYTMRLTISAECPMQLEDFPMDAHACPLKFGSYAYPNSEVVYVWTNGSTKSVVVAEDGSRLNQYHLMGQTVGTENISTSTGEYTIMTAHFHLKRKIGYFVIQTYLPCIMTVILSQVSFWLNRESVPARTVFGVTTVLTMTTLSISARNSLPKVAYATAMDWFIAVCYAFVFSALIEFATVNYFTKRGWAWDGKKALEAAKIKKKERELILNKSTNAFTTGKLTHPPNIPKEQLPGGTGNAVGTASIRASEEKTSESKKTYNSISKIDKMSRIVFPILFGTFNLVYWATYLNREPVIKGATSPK
T1 sequence (P18508 39-466): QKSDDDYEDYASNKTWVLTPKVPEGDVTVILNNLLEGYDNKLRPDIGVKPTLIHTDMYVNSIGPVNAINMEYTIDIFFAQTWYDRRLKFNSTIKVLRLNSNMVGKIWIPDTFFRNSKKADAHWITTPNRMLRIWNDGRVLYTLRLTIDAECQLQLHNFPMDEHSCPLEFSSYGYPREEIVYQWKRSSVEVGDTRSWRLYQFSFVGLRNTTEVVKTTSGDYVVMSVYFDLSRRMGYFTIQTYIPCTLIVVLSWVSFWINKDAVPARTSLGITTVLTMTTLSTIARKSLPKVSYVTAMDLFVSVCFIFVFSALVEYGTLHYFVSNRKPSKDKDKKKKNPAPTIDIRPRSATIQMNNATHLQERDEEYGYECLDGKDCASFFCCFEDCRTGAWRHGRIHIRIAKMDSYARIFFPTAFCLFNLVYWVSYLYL

Structure (SMILES)	increased locomotor response to amphetamine in MAM-treated rats (MAM-treated rats; rat, in vivo)	number of spontaneously active DA neurons in the ventral tegmental area (VTA) of MAM rats (MAM-treated rats; systemic or infused into the ventral HPC)	Ro 15-4513 binding in hippocampus (GABAA α5 receptor; i.v.)	cerebellum levels (binding) of Ro 15-4513 (GABAA α5 receptor; i.v.)	Ro 15-4513 binding in hippocampus (GABAA α5 receptor; [1])	cerebellum levels (binding) of Ro 15-4513 (GABAA α5 receptor; [1])	RO required for cognitive efficacy in this model (GABAA α5 receptor; from exposure in aged rats at 3 mg/kg, i.p.)	GABAA α5 receptors occupied at exposures behaviorally active in aged-impaired rats (GABAA α5 receptor; hippocampus exposure-occupancy relationship (FIG. 4))	ED50 of receptor occupancy, ratio method (GABAA α5 receptor; i.v.) [mg/kg]	memory performance relative to vehicle control (aged-impaired (AI) rats)
C#Cc1ccc2c(c1)C(c1ccccc1F)=N[C@H](C)c1c(C(=O)OCC)ncn1-2 [SH-053-2′F-R—CH3]	reduced	to levels observed in saline-treated rats								
COC(=O)c1c(-c2ccccc2)cnnc1-c1ccccc1 [methyl 3,5-diphenylpyridazine-4-carboxylate]			blocked	did not affect	dose-dependently reduced	without affecting	30-40%	about 32%	1.8	significantly improved memory performance
